Assay results: PMC8187479, “Sugar phosphate activation of the stress sensor eIF2B” (Nature Communications, 2021)

The compounds below were run against T1, eIF2Bα (Homo sapiens, UniProt Q14232) (assay: MIDAS (mass spectrometry integrated with equilibrium dialysis) metabolite binding screen). Conditions: MIDAS metabolite binding screen with eIF2Bα; sheet "eIF2Ba".
T1 construct: made in house; host or cells: E. coli BL21(DE3)
T1 sequence (Q14232 1-305): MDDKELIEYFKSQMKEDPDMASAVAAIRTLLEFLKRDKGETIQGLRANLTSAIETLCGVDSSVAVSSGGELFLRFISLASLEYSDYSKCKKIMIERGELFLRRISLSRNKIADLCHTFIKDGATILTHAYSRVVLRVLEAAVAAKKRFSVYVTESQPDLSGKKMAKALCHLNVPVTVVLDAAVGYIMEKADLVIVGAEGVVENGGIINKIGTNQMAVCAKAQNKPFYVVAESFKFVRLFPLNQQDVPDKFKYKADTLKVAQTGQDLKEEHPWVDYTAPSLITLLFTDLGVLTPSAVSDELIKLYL
Summary of the method: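 Hits called at Storey q < 0.1 on z-scores of PCA-corrected log2 fold change between protein and metabolite chambers, quantified by FIA-MS in triplicate.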

Row | Structure (SMILES) | log2(corrected fold change)
1 | CCCCCC(=O)NCC(=O)O [N-Hexanoyl-glycine] | -0.05912
2 | CC(=O)N[C@@H](CCCCN)C(=O)O [Nalpha-Acetyl-L-lysine] | -0.03422
3 | CC(=O)NCCCC[C@H](N)C(=O)O [Ne-Acetyl-lysine] | -0.03422
4 | NC(=O)c1ccc[n+]([C@@H]2O[C@H](COP(=O)([O-])OP(=O)(O)OC[C@H]3O[C@@H](n4cnc5c(N)ncnc54)[C@H](O)[C@@H]3O)[C@@H](O)[C@H]2O)c1 [Nicotinamide adenine dinucleotide] | -0.063
5 | CCCCCCCC(=O)O [Octanoic acid] | -0.007345
6 | CC(C)(CO)[C@@H](O)C(=O)NCCC(=O)O [Pantothenic acid] | 0.0165
7 | NCCc1ccccc1 [Phenethylamine] | -0.07261
8 | CN(CC(=O)O)C(=N)NP(=O)(O)O [Phosphocreatine] | -0.03403
9 | Cc1ncc(COP(=O)(O)O)c(CN)c1O [Pyridoxamine-5-phosphate] | -0.03281
10 | Cc1cc2nc3c(=O)[nH]c(=O)nc-3n(C[C@H](O)[C@H](O)[C@H](O)COP(=O)(O)O)c2cc1C [Riboflavin 5-monophosphate] | 0.06004
11 | C[S+](CC[C@H](N)C(=O)O)C[C@H]1O[C@@H](n2cnc3c(N)ncnc32)[C@H](O)[C@@H]1O (stereo partly drawn) [S-(5-Adenosyl)-L-methionine] | 0.006892
12 | C[C@@H](O)C(=O)SC[C@H](NC(=O)CC[C@H](N)C(=O)O)C(=O)NCC(=O)O [S-Lactoylglutathione] | -0.04124
13 | O=C(O)CCC(=O)O [Succinic acid] | -0.05121
14 | NCCS(=O)(=O)O [Taurine] | -0.01154
15 | Cc1ncc(C[n+]2csc(CCO)c2C)c(N)n1 [Thiamine] | 0.0196
16 | Cc1cn([C@H]2C[C@H](O)[C@@H](COP(=O)(O)O)O2)c(=O)[nH]c1=O [Thymidine monophosphate] | -0.007923
17 | O=C(O)[C@@H]1C[C@@H](O)CN1 [Trans-4-Hydroxy-L-proline] | 0.008003
18 | CC(=O)N[C@H]1[C@@H](OP(=O)(O)OP(=O)(O)OC[C@H]2O[C@@H](n3ccc(=O)[nH]c3=O)[C@H](O)[C@@H]2O)O[C@H](CO)[C@@H](O)[C@@H]1O [UDP-GlcNAc] | -0.0409
19 | O=c1ccn([C@@H]2O[C@H](COP(=O)(O)OP(=O)(O)OP(=O)(O)O)[C@@H](O)[C@H]2O)c(=O)[nH]1 [Uridine 5-triphosphate] | -0.0457
20 | O=c1ccn([C@@H]2O[C@H](CO)[C@@H](O)[C@H]2O)c(=O)[nH]1 [Uridine] | 0.009821

Further lines, results first:

Row | log2(corrected fold change) | Structure (SMILES)
21 | -0.02217 | O=C(CO)N[C@H]1[C@H]([C@H](O)[C@H](O)CO)OC(O)(C(=O)O)C[C@@H]1O (some centres unmarked) [N-Glycolylneuraminic acid]
22 | -0.07333 | CC(C)CC(=O)NCC(=O)O [N-Isovalerylglycine]
23 | 0.1674 | NC(=O)C1=CN([C@@H]2O[C@H](COP(=O)(O)OP(=O)(O)OC[C@H]3O[C@@H](n4cnc5c(N)ncnc54)[C@H](O)[C@@H]3O)[C@@H](O)[C@H]2O)C=CC1 [NADH]
24 | 0.02005 | NC(=O)c1ccc[n+]([C@@H]2O[C@H](COP(=O)([O-])OP(=O)(O)OC[C@H]3O[C@@H](n4cnc5c(N)ncnc54)[C@H](OP(=O)(O)O)[C@@H]3O)[C@@H](O)[C@H]2O)c1 [NADP]
25 | 0.01938 | N[C@@H](COP(=O)(O)O)C(=O)O [O-Phospho-L-serine]
26 | 0.3691 | CCCCCCCC(=O)SCCNC(=O)CCNC(=O)C(O)C(C)(C)COP(=O)(O)OP(=O)(O)OC[C@H]1O[C@@H](n2cnc3c(N)ncnc32)[C@H](O)[C@@H]1OP(=O)(O)O (some centres unmarked) [Octanoyl coenzyme A]
27 | 0.1983 | Cc1ncc(COP(=O)(O)O)c(C=O)c1O [Pyridoxal 5-phosphate]
28 | 0.1009 | Cc1ncc(CO)c(C=O)c1O [Pyridoxal]
29 | 0.0724 | Cc1ncc(CO)c(CN)c1O [Pyridoxamine]
30 | -0.008195 | Cc1ncc(C[n+]2csc(CCO[P@](=O)(O)OP(=O)(O)O)c2C)c(N)n1 [Thiamine pyrophosphate]

Same assay, conditions: MIDAS screen, sheet eIF2Ba; metabolites screened in pools 1-4; p-value and q-value given

Row | Structure (SMILES) | log2(corrected fold change)
31 | O=CNc1ccccc1C(=O)O [N-Formylanthranilic acid] | 0.2026
32 | NC(=O)c1ccc[n+](C2OC(COP(=O)(O)OP(=O)(O)OCC3OC(n4cnc5c(=O)[nH]cnc54)C(O)C3O)C(O)C2O)c1 (centres unmarked) [Nicotinamide hypoxanthine dinucleotide] | 0.06307
33 | NC(=O)c1ccc[n+]([C@@H]2O[C@H](COP(=O)([O-])O)[C@@H](O)[C@H]2O)c1 [Nicotinamide ribotide] | 1.511
34 | O=C(O)c1cccnc1 [Nicotinic acid] | -0.1307
35 | CC(=O)O[C@H](CC(=O)[O-])C[N+](C)(C)C [O-Acetyl-L-carnitine] | -0.03661
36 | O=C(O)CC(=O)C(=O)O [Oxaloacetic acid] | 0.1095
37 | O=C(O)CNC(=O)Cc1ccccc1 [Phenylacetylglycine] | 0.07604
38 | CCC(=O)SCCNC(=O)CCNC(=O)[C@H](O)C(C)(C)COP(=O)(O)OP(=O)(O)OC[C@H]1O[C@@H](n2cnc3c(N)ncnc32)[C@H](O)[C@@H]1OP(=O)(O)O [Propionyl coenzyme A] | 0.4521
39 | CCCCC[C@H](O)/C=C/[C@H]1C(=O)C[C@H](O)[C@@H]1C/C=C\CCCC(=O)O [Prostaglandin D2] | 0.05625
40 | Cc1ncc(CO)c(CO)c1O [Pyridoxine] | -0.04546
41 | Nc1ncnc2c1ncn2[C@@H]1O[C@H](CSCC[C@H](N)C(=O)O)[C@@H](O)[C@H]1O [S-(5-Adenosyl)-L-homocysteine] | -0.01949
42 | CC(C)(COP(=O)(O)OP(=O)(O)OC[C@H]1O[C@@H](n2cnc3c(N)ncnc32)[C@H](O)[C@@H]1OP(=O)(O)O)[C@H](O)C(=O)NCCC(=O)NCCSC(=O)CCC(=O)O [Succinyl coenzyme A] | 0.1384
43 | Cc1cn([C@H]2C[C@H](O)[C@@H](COP(=O)(O)OP(=O)(O)OP(=O)(O)O)O2)c(=O)[nH]c1=O [Thymidine 5-triphosphate] | 0.01939
44 | Cc1c[nH]c(=O)[nH]c1=O [Thymine] | -0.1153
45 | O=C(O)C/C=C/CC(=O)O [Trans-beta-Hydromuconic acid] | 0.04348
46 | NCCc1ccc(O)cc1 [Tyramine] | 0.3274
47 | O=C(O)[C@H]1O[C@H](OP(=O)(O)OP(=O)(O)OC[C@H]2O[C@@H](n3ccc(=O)[nH]c3=O)[C@H](O)[C@@H]2O)[C@H](O)[C@@H](O)[C@@H]1O [UDP-Glucuronate] | -0.09562
48 | O=c1[nH]c(=O)c2[nH]c(=O)[nH]c2[nH]1 [Uric acid] | -0.09817
49 | O=c1ccn([C@@H]2O[C@H](COP(=O)(O)OP(=O)(O)O)[C@@H](O)[C@H]2O)c(=O)[nH]1 [Uridine 5-diphosphate] | -0.03147
50 | O=c1[nH]c(=O)c2nc[nH]c2[nH]1 [Xanthine] | -0.1163
51 | O=c1[nH]c(=O)c2ncn([C@@H]3O[C@H](COP(=O)(O)O)[C@@H](O)[C@H]3O)c2[nH]1 [Xanthosine 5-monophosphate] | -0.169

Next, values leading:

Row | log2(corrected fold change) | Structure (SMILES)
52 | -0.8133 | NC(=O)C1=CN([C@@H]2O[C@H](COP(=O)(O)OP(=O)(O)OC[C@H]3O[C@@H](n4cnc5c(N)ncnc54)[C@H](OP(=O)(O)O)[C@@H]3O)[C@@H](O)[C@H]2O)C=CC1 [NADPH]
53 | -0.1042 | NC(=O)c1cccnc1 [Nicotinamide]
54 | 0.1876 | NCCOP(=O)(O)O [O-Phosphorylethanolamine]
55 | 0.07847 | O=C(O)c1cc(=O)[nH]c(=O)[nH]1 [Orotic acid]
56 | 0.02641 | O=C(O)C(=O)Cc1ccccc1 [Phenylpyruvate]
57 | -0.0156 | C[N+](C)(C)CCOP(=O)(O)O [Phosphocholine]
58 | -0.05886 | NCc1[nH]cc(CCC(=O)O)c1CC(=O)O [Porphobilinogen]
59 | 0.07527 | CCC(=O)NCC(=O)O [Propionylglycine]
60 | 0.05625 | CCCCC[C@H](O)/C=C/[C@H]1[C@H](O)CC(=O)[C@@H]1C/C=C\CCCC(=O)O [Prostaglandin E2]
61 | 0.05625 | CCCCC[C@H](O)/C=C/[C@@H]1[C@H]2C/C(=C/CCCC(=O)O)O[C@H]2C[C@H]1O [Prostaglandin I2]
62 | 0.3728 | Cc1cc2nc3c(=O)[nH]c(=O)nc-3n(C[C@H](O)[C@H](O)[C@H](O)CO)c2cc1C [Riboflavin]
63 | -0.1398 | CNCC(=O)O [Sarcosine]
64 | -0.3372 | OC[C@H]1O[C@@](CO)(O[C@H]2O[C@H](CO)[C@@H](O)[C@H](O)[C@H]2O)[C@@H](O)[C@@H]1O [Sucrose]
65 | 0.1425 | Cc1ncc(C[n+]2csc(CCOP(=O)(O)O)c2C)c(N)n1 [Thiamine monophosphate]
66 | 0.1162 | Cc1cn([C@H]2C[C@H](O)[C@@H](CO)O2)c(=O)[nH]c1=O [Thymidine]
67 | -0.07123 | O=c1cc[nH]c(=O)[nH]1 [Uracil]
68 | -0.06736 | NC(N)=O [Urea]
